# Data: US20250034135A1, “ANTI-APOPTOTIC PROTEIN BCL-2 INHIBITOR, PHARMACEUTICAL COMPOSITION AND USES THEREOF” (HANGZHOU HEALZEN THERAPEUTICS CO., LTD., priority 2021, published 2025)
# Like-named read-outs stand apart in the source and are kept apart here.
# How the values were obtained:
# RS4; 11 cells [1] = assay: Tumor proliferation inhibitory activity test (MTS) on RS4; 11; assay type: cell-based; conditions: 3 days incubation
# In short: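 RS4;11 cells were exposed to serially diluted compound (0.2% DMSO control) for 3 days at 37 °C/5% CO2, followed by MTS for 3–4 h. Read-out was OD490−OD690, and inhibition was calculated relative to the DMSO and blank wells.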
# BCL2 (G101V) = BCL2 (G101V) (Homo sapiens (Human), UniProt P10415, G101V); assay: Molecular level activity test of anti-apoptotic protein BCL2 (G101V) (HTRF, binding to Bim peptide); conditions: inhibition of BCL2 (G101V) binding to Bim peptide, read-out: BCL-2 (G101V)
# In short: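 His-tagged recombinant BCL2 (G101V) incubated 1 h with biotin-BIM peptide and compound (2% DMSO), then anti-His and streptavidin-XL665 detection reagents added for 4 h at room temperature. HTRF signal reflects compound effect on BCL2–BIM binding.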
# BCL2 = BCL2 (Homo sapiens (Human), UniProt P10415); assay: Molecular level activity test of anti-apoptotic protein BCL2 (HTRF, binding to Bim peptide); conditions: HTRF, binding of BCL2 to Bim peptide; read-out: BCL2 nM (inhibitory activity, IC50)
# In short: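 Signal comes from proximity of anti-His-labelled BCL2 and streptavidin-XL665-bound biotin-BIM peptide. Test compounds, added in 2% DMSO, were preincubated with protein and peptide for one hour; detection reagents then incubated four hours at room temperature before reading.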
# BCL2 (D103Y) = BCL2 (D103Y) (Homo sapiens (Human), UniProt P10415, D103Y); assay: Molecular level activity test of BCL2 (D103Y) (HTRF, binding to Bim peptide); conditions: read-out: BCL-2 (D103Y) (nM) (inhibitory activity, IC50)
# In short: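 His-tagged recombinant protein mixed with biotinylated BIM peptide and compound (2% DMSO), reacted 1 h. Anti-His and streptavidin-XL665 detection reagents then added and incubated 4 h at room temperature before HTRF read-out of binding inhibition.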
# Rat absorption test = conditions: Sprague-Dawley, plasma, po, 10 mg/kg
# Protocol: (§1) Experimental method: SD rats were used as experimental animals and administered 10 mg/kg by gavage. The blood collection time points for gavage administration were 0, 0.5, 1, 2, 3, 4, 6, 8, and 24 hours. 3 mL of whole blood was collected, and after centrifugation, 1 mL of plasma was taken for LC-MS analysis.
# human CYP3A4 enzyme [2] = target: T1, human CYP3A4 enzyme (Homo sapiens (Human), UniProt P08684); assay: CYP3A4 enzyme inhibitory activity (Vivid CYP3A4 Green screening kit); conditions: read-out: CYP3A4 (IC50); Vivid CYP3A4 Green screening kit
# Protocol: (§2) The inhibitory activity of compounds on human CYP3A4 enzyme was detected using a VIVID™ CYP3A4 GREEN SCRNING KIT reagent kit. The Vivid™ CYP450 screening kit includes a Vivid™ substrate, Vivid™ fluorescence standard, reaction buffer, Vivid™ regeneration system, NADP+ and CYP450 BACULOSOMES™ Plus reagent. Operations were performed following the instructions, and a blank control group was set up without adding any compounds.
# (§3) The IC50 value of the compounds inhibiting human CYP3A4 enzyme was calculated using Graphpad Prism 7.00 software through the formula Y=100/(1+10^((Log IC50−X)*HillSlope)).
# RS4; 11 cells [3] = assay: In vivo anti-tumor efficacy, RS4; 11 subcutaneous transplanted tumor model; conditions: 11 transplanted tumor, NOD/SCID mice, after 8 days
# Source text: Tumor models were established by subcutaneous inoculation of RS4; 11 cells into NOD/SCID mice. When the tumors grew to about 100 mm^3, the mice were divided into groups and administered as follows: The control group was given a corresponding volume of CMC-Na solution by gavage; […]; the weight and tumor size changes of the mice were weighed twice a week, and after 8 days, the efficacy of the compounds on RS4; 11 mice transplanted tumors was investigated.
# The relative tumor proliferation rate T/C %=TRTV/CRTV×100% (TRTV: average RTV of the treatment group; CRTV: average RTV of the negative control group). Based on the results of tumor measurements, the relative tumor volume (RTV) was calculated using the formula RTV=Vt/V0, where V0 was the tumor volume measured during group division (i.e. D0), Vt was the tumor volume at a certain measurement, and TRTV and CRTV used the data of the same day.
# Canine absorption test = conditions: Beagle dogs, 5 mg/kg by gavage
# Protocol: (§4) Experimental method: Beagle dogs were used as experimental animals and administered 5 mg/kg by gavage. The blood collection time points for gavage administration were 0, 0.5, 1, 2, 3, 4, 6, 8, and 24 hours. 3 mL of whole blood was collected, and after centrifugation, plasma was taken for LC-MS analysis.
# human platelets = assay: Platelet viability test (CTG); assay type: cell-based; conditions: CTG after 24 h
# Protocol: After 10 mL of platelet-rich plasma was added to 30 mL of ACD-A solution and uniformly mixed, centrifugation was performed at 1200 g, and the supernatant was discarded; 10 mL of ACD-A solution was added, resuspended, uniformly mixed, and centrifuged at 1200 g for 10 min, and the supernatant was discarded. 5 mL of HEPES-Tyrode's buffer containing 1 μM PGE1 and 0.2 U/mL apyrase was added, slightly inverted, and then centrifuged at 800 g for 5 min, and the supernatant was discarded. 10 mL of HEPES-Tyrode's buffer containing 1 μM PGE1 and 0.2 U/mL apyrase was added, resuspended, and centrifuged at 1000 g for 5 min, and the supernatant was discarded. 2 mL of HEPES-Tyrode's buffer containing 1 μM PGE1+10% FBS-resuspended platelets was added, 200 μL was taken into a centrifuge tube and diluted to 2 mL. Then it was diluted to 1, 0.8, 0.6, 0.4, 0.2, 0.1, 0.08, 0.06, 0.04, 0.02, 0.01 times, the volume was complemented to 100 μL, and 50 μL of CTG reagent was added to detect cell viability. The maximum valid dilution with a fluorescence value not exceeding […] was selected for dilution, 90 μL/well was connected to a 96-well cell plate for chemiluminescence detection. A compound was prepared with HEPES-Tyrode's buffer containing 1 μM of PGE1+10% FBS, and added to the cells, which was gently beaten evenly and detected for cell viability by adding 50 μL CTG after 24 h.
# BCL-XL = BCL-XL (Homo sapiens (Human), UniProt Q07817); assay: BCL-XL enzyme molecular level activity test (HTRF, binding to BIM peptide); conditions: binding of BCL-XL to BIM peptide, read-out: BCL-XL inhibitory activity (IC50)
# In short: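 HTRF binding assay: His-tagged recombinant BCL-XL with biotin-BIM peptide and compound (2% DMSO), 1 h. Anti-His and streptavidin-XL665 detection reagents added, 4 h at room temperature. Excitation 320 nm; 665/615 nm ratio reflects binding, with no-protein background and no-compound full-binding controls.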
# human CYP3A4 enzyme [4] = target: T1, human CYP3A4 enzyme
# Protocol: as §2, §3
# [5] = beagle, dog, in vivo, 5 mg/kg
# Protocol: as §4
# in vivo = conditions: Sprague-Dawley, rat, po, 10 mg/kg
# Protocol: as §1
# T1 sequence (P08684 whole entry): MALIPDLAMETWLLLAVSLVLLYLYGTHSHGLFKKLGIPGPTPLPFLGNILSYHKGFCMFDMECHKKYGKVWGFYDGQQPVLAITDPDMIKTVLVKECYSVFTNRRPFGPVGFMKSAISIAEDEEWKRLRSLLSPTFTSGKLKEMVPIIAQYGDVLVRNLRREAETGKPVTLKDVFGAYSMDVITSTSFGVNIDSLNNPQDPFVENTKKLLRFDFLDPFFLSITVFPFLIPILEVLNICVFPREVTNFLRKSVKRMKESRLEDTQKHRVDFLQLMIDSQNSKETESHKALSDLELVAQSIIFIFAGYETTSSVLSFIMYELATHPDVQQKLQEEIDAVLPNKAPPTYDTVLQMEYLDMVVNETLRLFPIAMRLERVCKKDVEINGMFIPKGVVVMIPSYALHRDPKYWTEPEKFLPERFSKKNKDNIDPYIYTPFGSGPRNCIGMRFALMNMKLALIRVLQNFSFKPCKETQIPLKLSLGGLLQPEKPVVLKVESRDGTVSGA
# BCL-XL, sequence (Q07817 whole entry): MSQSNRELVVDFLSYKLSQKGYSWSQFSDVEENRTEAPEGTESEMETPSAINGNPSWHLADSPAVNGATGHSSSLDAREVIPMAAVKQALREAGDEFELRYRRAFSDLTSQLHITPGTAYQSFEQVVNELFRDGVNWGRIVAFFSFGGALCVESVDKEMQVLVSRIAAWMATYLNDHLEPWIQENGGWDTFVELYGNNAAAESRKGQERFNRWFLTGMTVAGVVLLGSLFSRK
Compound,"IC50 (RS4; 11 cells [1]; Homo sapiens, RS4-11, 72 h)",IC50 (BCL2 (G101V)),IC50 (BCL2),IC50 (BCL2 (D103Y)),AUC (Rat absorption test),IC50 (human CYP3A4 enzyme [2]),T/C % (RS4; 11 cells [3]; 5 mg/kg by gavage),DNAUC (Canine absorption test),IC50 (human platelets),IC50 (BCL-XL; values in nM),IC50 (human CYP3A4 enzyme [4]),DNAUC [5],AUC (in vivo),T/C % (RS4; 11 cells [3]; 15 mg/kg by gavage),IC50 (RS4; 11 cells [1]),IC50 (BCL-XL; values given in μM)
"COc1ccc(CN2CCN(C3CC4(CCN(c5cc(Oc6cnc7[nH]ccc7c6)c(C(=O)NS(=O)(=O)c6ccc(NC[C@H]7CC[C@](C)(O)CC7)c([N+](=O)[O-])c6)cn5)CC4)C3)[C@H](c3ccccc3C(C)C)C2)cc1 [compound 256, 4-((1H-pyrrolo[2,3-b]pyrid-5-yl)oxy)-N-((4-((((1r, 4r)-4-hydroxy-4-methylcyclohexyl)methyl)amino)-3-nitrophenyl)sulfonyl)-6-(2-((R)-2-(2-isopropylphenyl)-4-(4-methoxybenzyl)piperazin-1-yl)-7-azaspiro[3.5]non-7-yl) nicotinamide]",< 0.5 nM,< 10 nM,< 10 nM,< 10 nM,1800 ng·h/mL,> 20000 nM,–,–,–,–,–,–,–,–,–,–
COc1ccc(CN2CCN(C3CC4(CCN(c5cc(Oc6cnc7[nH]ccc7c6)c(C(=O)NS(=O)(=O)c6ccc(NC[C@H]7CC[C@](C)(O)CC7)c([N+](=O)[O-])c6)cc5F)CC4)C3)[C@H](c3ccccc3C(C)C)C2)cc1 [compound 234],< 0.5 nM,< 10 nM,< 10 nM,< 10 nM,5630 ng·h/mL,> 20000 nM,1.26%,9103 AUC (h*ng/mL)/dose (mg/kg),> 5000 nM,> 500 nM,–,–,–,–,–,–
"COc1ccc(CN2CCN(C3CC4(CCN(c5cc(Oc6cnc7[nH]ccc7c6)c(C(=O)NS(=O)(=O)c6cc([N+](=O)[O-])c(NC[C@H]7CC[C@](C)(O)CC7)c7[nH]cnc67)cn5)CC4)C3)[C@H](c3ccccc3C(C)C)C2)cc1 [compound 266, 4-((1H-pyrrolo[2,3-b]pyrid-5-yl)oxy)-N-((7-((((1r,4r)-4-hydroxy-4-methylcyclohexyl)methyl)amino)-6-nitro-1H-benzo[d]imidazol-4-yl)sulfonyl)-6-(2-((R)-2-(2-isopropylphenyl)-4-(4-methoxybenzyl)piperazin-1-yl)-7-azaspiro[3.5]non-7-yl) nicotinamide]",< 0.5 nM,< 10 nM,< 10 nM,< 10 nM,–,> 20000 nM,15.38%,–,–,–,–,–,–,–,–,–
"COc1ccc(CN2CCN(C3CC4(CCN(c5cc(Oc6cnc7[nH]ccc7c6)c(C(=O)NS(=O)(=O)c6ccc(NCC7(F)CCOCC7)c([N+](=O)[O-])c6)cc5F)CC4)C3)[C@H](c3ccccc3C(C)C)C2)cc1 [compound 152, (R)-2-((1H-pyrrolo[2,3-b]pyrid-5-yl)oxy)-5-fluoro-N-((4-(((4-fluorotetrahydro-2H-pyran-4-yl)methyl)amino)-3-nitrophenyl)sulfonyl)-4-(2-(2-(2-isopropylphenyl)-4-(4-methoxybenzyl)piperazin-1-yl)-7-azaspiro[3.5]non-7-yl)benzamide]",–,–,–,–,–,–,–,–,–,–,> 20000 nM,13685 AUC (h*ng/mL)/dose (mg/kg),3330 ng·h/mL,–,–,–
"COc1ccc(CN2CCN(C3CC4(CCN(c5ccc(C(=O)NS(=O)(=O)c6cc([N+](=O)[O-])c(NCC7(F)CCOCC7)c7[nH]cnc67)c(Oc6cnc7[nH]ccc7c6)c5)CC4)C3)[C@H](c3ccccc3C(C)C)C2)cc1 [compound 261, (R)-2-((1H-pyrrolo[2,3-b]pyrid-5-yl)oxy)-N-((7-(((4-fluorotetrahydro-2H-pyran-4-yl)methyl)amino)-6-nitro-1H-benzo[d]imidazol-4-yl)sulfonyl)-4-(2-(2-(2-isopropylphenyl)-4-(4-methoxybenzyl)piperazin-1-yl)-7-azaspiro[3.5]non-7-yl)benzamide]",< 0.5 nM,< 10 nM,< 10 nM,< 10 nM,1210 ng·h/mL,> 20000 nM,–,–,–,–,–,–,–,5.35%,–,–
"(R)-2-((1H-pyrrolo[2,3-b]pyrid-5-yl)oxy)-5-fluoro-N-((4-(((4-fluorotetrahydro-2H-pyran-4-yl)methyl)amino)-3-nitrophenyl)sulfonyl)-4-(2-(2-(2-isopropylphenyl)-4-(4-methoxybenzyl)piperazin-1-yl)-7-azaspiro[3.5]non-7-yl)benzamide [compound 152]",–,< 10 nM,< 10 nM,< 10 nM,–,–,0.35%,–,> 5000 nM,–,–,–,–,–,< 0.5 nM,> 1000 nM
